Experimental data as given in ChEMBL document CHEMBL1821715, “Synthesis, characterization and pharmacological activity of 4-{[1-substituted aminomethyl-4-arylideneamino-5-sulfanyl-4,5-dihydro-1H-1,2,4-triazol-3-yl]methyl}-2H-1,4-benzothiazin-3(4H)-ones” (2011).

Key:
Format in all cases: functional
[1] = tested on: Rattus norvegicus; assay: Antiinflammatory activity in Wistar albino rat assessed as reduction of carrageenan-induced paw volume at 20 mg/kg, po administered 30 mins before carrageenan challenge measured after 2 hrs relative to control; set-up: scale not given: the % may be the effect or the level left
[2] = tested on: Rattus norvegicus; assay: Antiinflammatory activity in Wistar albino rat assessed as reduction of carrageenan-induced paw volume at 20 mg/kg, po administered 30 mins before carrageenan challenge measured after 1 hr relative to control; set-up: scale not given: the % may be the effect or the level left
[3] = tested on: Rattus norvegicus; assay: Antiinflammatory activity in Wistar albino rat assessed as reduction of carrageenan-induced paw volume at 20 mg/kg, po administered 30 mins before carrageenan challenge measured after 0.5 hr relative to control; set-up: scale not given: the % may be the effect or the level left
[4] = tested on: Rattus norvegicus; assay: Analgesic activity in Wistar albino rat assessed as reaction time required for tail flicking at 20 mg/kg after 30 mins by tail-flick method relative to control
[5] = tested on: Rattus norvegicus; assay: Analgesic activity in Wistar albino rat assessed as reaction time required for tail flicking at 20 mg/kg after 60 mins by tail-flick method relative to control
[6] = tested on: Rattus norvegicus; assay: Analgesic activity in Wistar albino rat assessed as reaction time required for tail flicking at 20 mg/kg after 90 mins by tail-flick method relative to control

| Compound | Activity [1] [%] | Activity [2] [%] | Activity [3] [%] | Time [4] [s] | Time [5] [s] | Time [6] [s] |
| --- | --- | --- | --- | --- | --- | --- |
| COc1ccc2c(c1)c(CC(=O)O)c(C)n2C(=O)c1ccc(Cl)cc1 [INDOMETHACIN] | 69.81 | 70.26 | 66.89 |  |  |  |
| O=C1CSc2ccccc2N1Cc1nn(CN2CCOCC2)c(=S)n1/N=C/c1ccc(Cl)cc1 | 29.55 | 32.35 | 28.04 | 4.8 | 4.875 | 4.075 |
| CN1CCN(Cn2nc(CN3C(=O)CSc4ccccc43)n(/N=C/c3ccc([N+](=O)[O-])cc3)c2=S)CC1 | 37.34 | 40.53 | 33.11 | 5.475 | 5.975 | 6.05 |
| CN1CCN(Cn2nc(CN3C(=O)CSc4ccccc43)n(/N=C/c3ccc(Cl)cc3)c2=S)CC1 | 42.86 | 44.12 | 38.51 | 4.575 | 5.375 | 5 |
| O=C1CSc2ccccc2N1Cc1nn(CN2CCOCC2)c(=S)n1/N=C/c1ccc([N+](=O)[O-])cc1 | 31.82 | 42.16 | 37.84 | 5.425 | 6.05 | 6.025 |
| O=C1CSc2ccccc2N1Cc1nn(CN2CCOCC2)c(=S)n1/N=C/c1ccccc1 | 10.39 | 10.13 | 5.4 | 3.175 | 3.375 | 3.4 |
| O=C1CSc2ccccc2N1Cc1nn(CN2CCOCC2)c(=S)n1/N=C/c1ccc(O)cc1 | 38.97 | 45.1 | 53.38 | 4.3 | 5 | 6 |
| O=C1CSc2ccccc2N1Cc1nn(CN2CCCCC2)c(=S)n1/N=C/c1ccccc1 | 41.23 | 41.18 | 40.21 | 3.925 | 5.3 | 5.5 |
| O=C1CSc2ccccc2N1Cc1nn(CN2CCCCC2)c(=S)n1/N=C/c1ccc([N+](=O)[O-])cc1 | 58.77 | 55.56 | 52.71 | 5.1 | 5.3 | 4.875 |
| CN1CCN(Cn2nc(CN3C(=O)CSc4ccccc43)n(/N=C/c3ccccc3)c2=S)CC1 | 10.39 | 9.8 | 8.1 | 3.5 | 4.3 | 4.225 |
| O=C(O)CN1C(=O)CSc2ccccc21 | 27.93 | 30.07 | 38.51 | 5.775 | 6.5 | 6.875 |
| CC(C)=CCN1CC[C@]2(C)c3cc(O)ccc3C[C@H]1[C@H]2C [(+)-PENTAZOCINE] |  |  |  | 6.4 | 7.175 | 7.45 |
